According to the CheMixHub ionic liquid set:

Assay: xn = mol fraction of the nth substance listed

CCCCCCCCCCCCCC[n+]1ccccc1.O=C([O-])C(O)c1ccccc1 + O
electrical conductivity [S/m], 101 kPa
Settings	293.15 K	298.15 K	303.15 K	308.15 K	313.15 K
x1 = 6.85e-06	0.00248	0.00278	0.00309	0.0034	0.0037
x1 = 1.424e-05	0.00472	0.00529	0.00587	0.0065	0.0071
x1 = 2.126e-05	0.00671	0.0076	0.0084	0.0093	0.0101
x1 = 2.811e-05	0.0086	0.0097	0.0108	0.0122	0.0131
x1 = 3.46e-05	0.0103	0.0116	0.0129	0.0145	0.0157
x1 = 4.108e-05	0.0117	0.0131	0.0146	0.0161	0.0179
x1 = 4.811e-05	0.0129	0.0144	0.0161	0.0179	0.0198
x1 = 5.388e-05	0.0137	0.0154	0.0172	0.0191	0.0211
x1 = 5.982e-05	0.0145	0.0163	0.0182	0.0202	0.0224
x1 = 6.559e-05	0.0153	0.0172	0.0192	0.0213	0.0236
x1 = 7.081e-05	0.016	0.018	0.02	0.0223	0.0246
x1 = 7.604e-05	0.0167	0.0187	0.0209	0.0232	0.0258
x1 = 8.072e-05	0.0173	0.0194	0.0217	0.0241	0.0266

CC(=O)[O-].CCC[N+]1(C)CCN(C)CC1 + CC#N
Settings	electrical conductivity [S/m]
298 K, 101 kPa, x2 = 0.791	1.76

CCO + CCCC[n+]1ccn(C)c1.[I-]
Settings	electrical conductivity [S/m]
298.15 K, 100 kPa, x2 = 0	3.98e-05

CCC(C)=O + CCCC[n+]1ccn(C)c1.F[B-](F)(F)F
viscosity [mPa·s]
Settings	298.15 K	303.15 K	313.15 K	323.15 K	333.15 K
100 kPa, x2 = 0	–	0.367	0.333	0.304	0.29
100 kPa, x2 = 0.0997	–	0.817	0.737	0.688	0.595
100 kPa, x2 = 0.1995	–	1.594	1.424	1.27	1.189
100 kPa, x2 = 0.2996	–	2.941	2.486	2.135	1.878
100 kPa, x2 = 0.3997	–	5.054	4.146	3.479	2.97
100 kPa, x2 = 0.5001	–	8.51	6.778	5.465	4.57
100 kPa, x2 = 0.6001	–	14.01	10.62	8.302	6.74
100 kPa, x2 = 0.6998	–	22.67	16.37	12.55	9.78
100 kPa, x2 = 0.7999	–	35.13	24.24	17.78	13.54
100 kPa, x2 = 0.8993	–	54.16	35.18	24.79	18.41
101.33 kPa, x1 = 0.1005	67.9	–	–	–	–
101.33 kPa, x1 = 0.3107	22.7	–	–	–	–
101.33 kPa, x1 = 0.6995	3.17	–	–	–	–

CC(=O)[O-].CC[NH2+]CC + CC(C)=O
298.15 K, 101 kPa
Settings	electrical conductivity [S/m]	viscosity [mPa·s]
x1 = 0.0095	0.001	–
x1 = 0.0238	0.033	–
x1 = 0.0523	0.085	–
x1 = 0.0729	0.131	–
x1 = 0.098	–	0.734
x1 = 0.0983	0.171	–
x1 = 0.194	–	1.092
x1 = 0.1981	0.328	–
x1 = 0.2979	0.427	–
x1 = 0.299	–	2.01
x1 = 0.401	0.479	–
x1 = 0.402	–	3.5
x1 = 0.4945	0.505	–
x1 = 0.5	–	5.74
x1 = 0.599	–	8.92
x1 = 0.6022	0.459	–
x1 = 0.701	–	14.91
x1 = 0.7021	0.427	–
x1 = 0.7971	0.387	–
x1 = 0.802	–	24.3
x1 = 0.9002	0.341	–
x1 = 0.903	–	38.6
x2 = 0.003	–	58.7

CC[S+](CC)CCOCCOCCOCCOCC[S+](CC)CC.N#C[N-]C#N.N#C[N-]C#N + CC[n+]1ccn(C)c1.N#C[N-]C#N + O=S(=O)([N-]S(=O)(=O)C(F)(F)F)C(F)(F)F.[Li+]
100 kPa, x1 = 0.2317, x2 = 0.6756
Settings	electrical conductivity [S/m]
298 K	0.811
303 K	1.16
313 K	1.35
323 K	1.51
333 K	1.93
343 K	2.26

CC(=O)N(C)C + CCCC[n+]1ccn(C)c1.F[B-](F)(F)F
viscosity [mPa·s], 101 kPa
Settings	293.15 K	298.15 K	303.15 K	308.15 K	313.15 K	318.15 K	323.15 K
x1 = 1	–	–	–	–	0.778	–	–
x2 = 0	1.02	0.94	0.87	0.82	0.78	0.74	0.72

CCCC[N+](CCCC)(CCCC)Cc1ccccc1.[Cl-] + O
electrical conductivity [S/m], frequency 0.001 MHz
Settings	293.15 K	298.15 K	303.15 K	308.15 K	313.15 K	318.15 K
100 kPa, x1 = 1.802e-05	0.0056	0.0105	0.0171	0.0235	0.0329	–
100 kPa, x1 = 5.406e-05	0.0129	0.0203	0.0243	0.0288	0.0396	–
100 kPa, x1 = 9.009e-05	0.0172	0.0255	0.0327	0.0349	0.0468	–
101.3 kPa, x1 = 1.802e-05	–	0.0104	–	0.0139	–	0.0173
101.3 kPa, x1 = 5.406e-05	–	0.0231	–	0.0284	–	0.0345
101.3 kPa, x1 = 9.009e-05	–	0.0367	–	0.0457	–	0.0546

viscosity [mPa·s]
Settings	293.15 K	298.15 K	303.15 K	308.15 K	318.15 K
100 kPa, x1 = 1.802e-05	0.953	0.913	0.876	–	–
100 kPa, x1 = 5.406e-05	0.961	0.921	0.88	–	–
100 kPa, x1 = 9.009e-05	0.972	0.93	–	–	–
101.3 kPa, x1 = 1.802e-05	–	0.906	–	0.775	0.643
101.3 kPa, x1 = 5.406e-05	–	0.923	–	0.793	0.659
101.3 kPa, x1 = 9.009e-05	–	0.942	–	–	–
